In PubChem BioAssay AID248 (DTP/NCI, 2004):
Several values for one entry are separate records, joined by “and”; a condition that tells them apart may be missing. Equal entries are not always repeated. Toxic doses and inconclusive results are not listed. Rule as the data show it: active = T/C of 150% or more; inactive = T/C below 125%.

Tested on: L1210 leukemia ip in BDF1 mice, survival T/C
Experiment: NCI In Vivo Anticancer Drug Screen. Data for tumor model L1210 Leukemia (intraperitoneal) in B6D2F1 (BDF1) mice
Conditions: endpoint: mean survival time, higher = longer survival
How it was run: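 Antitumor effect is assessed in tumor-bearing animals. Survival in the compound arm is compared with a vehicle-dosed control arm and expressed as their quotient.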

[1] = dose: 100.0 mg/kg/injection, schedule: Q04DX002 (ip), vehicle: saline
[2] = dose: 200.0 mg/kg/injection, schedule: Q04DX002 (ip), vehicle: saline
[3] = dose: 400.0 mg/kg/injection, schedule: Q04DX002 (ip), vehicle: saline
[4] = dose: 50.0 mg/kg/injection, schedule: Q01DX009 (ip), vehicle: saline
[5] = dose: 100.0 mg/kg/injection, schedule: Q01DX009 (ip), vehicle: saline
[6] = dose: 50.0 mg/kg/injection, schedule: Q01DX009 (ip), vehicle: Klucel (hydroxypropylcellulose) (HPC)
[7] = dose: 100.0 mg/kg/injection, schedule: Q01DX009 (ip), vehicle: Klucel (hydroxypropylcellulose) (HPC)
[8] = dose: 200.0 mg/kg/injection, schedule: Q01DX009 (ip), vehicle: Klucel (hydroxypropylcellulose) (HPC)
[9] = dose: 400.0 mg/kg/injection, schedule: Q01DX009 (ip), vehicle: Klucel (hydroxypropylcellulose) (HPC)
[10] = dose: 100.0 mg/kg/injection, schedule: Q01DX009 (ip), vehicle: saline with Tween-80
[11] = dose: 100.0 mg/kg/injection, schedule: Q04DX003 (ip), vehicle: saline with Tween-80
[12] = dose: 200.0 mg/kg/injection, schedule: Q01DX009 (ip), vehicle: saline with Tween-80
[13] = dose: 400.0 mg/kg/injection, schedule: Q01DX009 (ip), vehicle: saline with Tween-80
[14] = dose: 50.0 mg/kg/injection, schedule: Q01DX001 (ip), vehicle: carboxymethylcellulose (CMC)
[15] = dose: 100.0 mg/kg/injection, schedule: Q01DX001 (ip), vehicle: carboxymethylcellulose (CMC)
[16] = dose: 100.0 mg/kg/injection, schedule: Q04DX002 (ip), vehicle: Klucel (hydroxypropylcellulose) (HPC)
[17] = dose: 200.0 mg/kg/injection, schedule: Q01DX001 (ip), vehicle: carboxymethylcellulose (CMC)
[18] = dose: 200.0 mg/kg/injection, schedule: Q01DX009 (ip), vehicle: saline
[19] = dose: 200.0 mg/kg/injection, schedule: Q04DX002 (ip), vehicle: Klucel (hydroxypropylcellulose) (HPC)
[20] = dose: 400.0 mg/kg/injection, schedule: Q01DX001 (ip), vehicle: carboxymethylcellulose (CMC)
[21] = dose: 400.0 mg/kg/injection, schedule: Q04DX002 (ip), vehicle: Klucel (hydroxypropylcellulose) (HPC)

Measured: T/C

Cc1cc(=O)c2cc(N(C)C)ccc2[nH]1
inactive: dose: 100.0 mg/kg/injection, schedule: Q01DX009 (ip), vehicle: water 100 % of control | dose: 100.0 mg/kg/injection, schedule: Q04DX003 (ip), vehicle: water 115 % of control | dose: 200.0 mg/kg/injection, schedule: Q01DX009 (ip), vehicle: water 105 % of control | dose: 200.0 mg/kg/injection, schedule: Q04DX003 (ip), vehicle: water 116 % of control | dose: 400.0 mg/kg/injection, schedule: Q01DX009 (ip), vehicle: water 104 % of control | dose: 400.0 mg/kg/injection, schedule: Q04DX003 (ip), vehicle: water 116 % of control

CNCC(O)c1cc(OC)c(OC)c(OC)c1 (configuration not stated)
inactive: [1] 102 % of control | [2] 93 % of control | [3] 96 % of control

O=c1[nH]cnc2ccnn12
inactive: [4] 104 % of control | [5] 107 % of control | dose: 100.0 mg/kg/injection, schedule: Q04DX003 (ip), vehicle: saline 97 % of control | dose: 200.0 mg/kg/injection, schedule: Q04DX003 (ip), vehicle: saline 92 % of control

CN/C=C1\CCOC1=O
inactive: [1] 124 % of control | [2] 101 % of control | [3] 90 % of control

CCN(CC)CCSC(=O)C(O)(c1ccccc1)C1CCCCC1 (configuration not stated)
inactive: dose: 75.0 mg/kg/injection, schedule: Q01DX001 (ip), vehicle: other 100 % of control

CCCC(C)C(C)CC (configuration not stated)
inactive: dose: 25.0 mg/kg/injection, schedule: Q01DX001 (ip), vehicle: saline sonified 107 % of control | dose: 50.0 mg/kg/injection, schedule: Q01DX001 (ip), vehicle: saline sonified 98 % of control | dose: 100.0 mg/kg/injection, schedule: Q01DX001 (ip), vehicle: saline sonified 93 % of control

NCCC(c1ccccc1)c1ccccc1
inactive: dose: 75.0 mg/kg/injection, schedule: Q01DX001 (ip), vehicle: carboxymethylcellulose (CMC) 104 % of control

O=C(/C=C/c1ccccc1)Nc1cc([N+](=O)[O-])ccc1O
inactive: [6] 97 % of control | [7] 94 % of control and 87 % of control | [8] 94 % of control and 97 % of control | [9] 87 % of control

O=C1CN=C(c2ccccn2)c2cc(Cl)ccc2N1CCO
inactive: [10] 106 % of control | [11] 96 % of control | [12] 101 % of control | dose: 200.0 mg/kg/injection, schedule: Q04DX003 (ip), vehicle: saline with Tween-80 112 % of control | [13] 98 % of control | dose: 400.0 mg/kg/injection, schedule: Q04DX003 (ip), vehicle: saline with Tween-80 91 % of control

CC(=O)c1cccc(NC(=O)c2ccco2)c1
inactive: [6] 96 % of control | [7] 93 % of control | [8] 93 % of control

O=c1cc(Cc2ccc([N+](=O)[O-])cc2)[nH]c(=O)[nH]1
inactive: dose: 50.0 mg/kg/injection, schedule: Q01DX001 (ip), vehicle: saline 101 % of control | dose: 100.0 mg/kg/injection, schedule: Q01DX001 (ip), vehicle: saline 107 % of control | dose: 200.0 mg/kg/injection, schedule: Q01DX001 (ip), vehicle: saline 115 % of control | dose: 400.0 mg/kg/injection, schedule: Q01DX001 (ip), vehicle: saline 115 % of control

Cc1ccc(S(=O)(=O)Cc2ccccc2)cc1
inactive: [14] 103 % of control | [4] 103 % of control | [15] 103 % of control | [5] 99 % of control | [16] 100 % of control | [17] 103 % of control | [18] 94 % of control | [19] 106 % of control | [20] 97 % of control | [21] 95 % of control

CC1C(=O)OC(C)(C)C1(C)C (configuration not stated)
inactive: dose: 25.0 mg/kg/injection, schedule: Q04DX003 (ip), vehicle: saline with Tween-80 108 % of control | dose: 50.0 mg/kg/injection, schedule: Q04DX003 (ip), vehicle: saline with Tween-80 96 % of control | [11] 96 % of control

Cc1ccccc1C(O)(c1ccccc1C)C1(O)CCN(C)CC1
inactive: dose: 9.37 mg/kg/injection, schedule: Q01DX009 (ip), vehicle: saline 94 % of control | dose: 18.75 mg/kg/injection, schedule: Q01DX009 (ip), vehicle: saline 96 % of control | dose: 37.5 mg/kg/injection, schedule: Q01DX009 (ip), vehicle: saline 100 % of control

ClCCc1ccc(-n2cnc3c(Cl)ncnc32)cc1
inactive: [14] 104 % of control | [15] 106 % of control | [17] 101 % of control | [20] 98 % of control

O=C(/C=C/C=C\c1ccccc1)/C=C/C=C/c1ccccc1
inactive: dose: 100.0 mg/kg/injection, schedule: Q01DX001 (ip), vehicle: Klucel (hydroxypropylcellulose) (HPC) 91 % of control | [7] 92 % of control | dose: 200.0 mg/kg/injection, schedule: Q01DX001 (ip), vehicle: Klucel (hydroxypropylcellulose) (HPC) 93 % of control | [8] 92 % of control | dose: 400.0 mg/kg/injection, schedule: Q01DX001 (ip), vehicle: Klucel (hydroxypropylcellulose) (HPC) 93 % of control | [9] 89 % of control

Cc1cc(S(=O)(=O)F)ccc1NC(=O)NCc1ccc([N+](=O)[O-])cc1
inactive: [7] 100 % of control | [8] 106 % of control

O=C(O)c1ccccc1SCCO
inactive: [5] 109 % of control | [18] 94 % of control | dose: 400.0 mg/kg/injection, schedule: Q01DX009 (ip), vehicle: saline 95 % of control

Cc1cccc(C)c1NC(=S)N1CCOCC1
inactive: dose: 100.0 mg/kg/injection, schedule: Q01DX009 (ip), vehicle: other 106 % of control | dose: 200.0 mg/kg/injection, schedule: Q01DX009 (ip), vehicle: other 116 % of control | dose: 400.0 mg/kg/injection, schedule: Q01DX009 (ip), vehicle: other 122 % of control

Cc1cc(C)c2c(c1)C(=O)C(=O)c1cc(C)cc(C)c1-2
inactive: dose: 50.0 mg/kg/injection, schedule: Q04DX002 (ip), vehicle: Klucel (hydroxypropylcellulose) (HPC) 95 % of control | [16] 94 % of control and 92 % of control | [19] 98 % of control | [21] 116 % of control and 88 % of control

O=C(Nc1ccc(F)c([N+](=O)[O-])c1)Nc1ccccc1C(F)(F)F
inactive: [10] 90 % of control | [12] 96 % of control | [13] 97 % of control

Cc1cc(Cl)ccc1O/C(=C/C(=O)O)C(=O)O
inactive: dose: 100.0 mg/kg/injection, schedule: Q04DX002 (ip), vehicle: saline with Tween-80 107 % of control | dose: 200.0 mg/kg/injection, schedule: Q04DX002 (ip), vehicle: saline with Tween-80 107 % of control | dose: 400.0 mg/kg/injection, schedule: Q04DX002 (ip), vehicle: saline with Tween-80 100 % of control
